The values below come from US20180305345A1 (priority 2015, published 2018).

The conditions of series [1]: mouse; for Plasma stab. % remaning at 3 hrs: Balb/c, pH 7.4.
Series [2] in a line: physchem. The conditions noted are these: buffer, pH 7.4.
A short description of series [3]: physchem. Particulars: buffer.
Series [4] relates to ICPO-null HSV-N212eGFP in 786-0 cells. The series is classed as cell-based, human. Particulars: MOI 0.01, 48 h after infection.
Series [5] deals with oncolytic HSV-1 expressing GFP in 786-0 cancer cells. The series is classed as cell-based, human.
The subject of series [6] is VSVΔ51. Particulars: cited from earlier work.
The subject of series [7] is MG1-eGFP in 786-0 cells. The series is classed as cell-based, human.
The subject of series [8] is 786-0 cells. Particulars: human.
For series [9] the following is noted: female, Balb/c, mouse, in vivo.
Series [10] concerns VSVΔ51 in 786-0 cells. The series is classed as cell-based, human.
The subject of series [11] is VSVΔ51-GFP in CT26 murine colon cancer tumors. The class given is cell-based, mouse.
For series [12], the system named is VSVΔ51-FLuc in CT26 tumors. Details: species or system Balb/c mice. The conditions noted are these: mouse, in vivo.
In series [13] the test system is VSVΔ51-GFP in normal mouse brain, lung and spleens.

As a reminder, the half-life is the time needed for the level to fall by half in the phase considered. A low value points to rapid decline.

As to `O=C1OC(c2ccccc2)C(Cl)=C1Cl` (centres unmarked) [Compound 1, 3,4-dichloro-5-phenyl-2,5-dihydrofuran-2-one, reference compound], in series [1], the “Plasma stab. % remaning at 3 hrs” value came out at 0%. Besides, the half-life in [2] was 28.8 min; in series [3], under 5 min. In addition, the “GFP counts, HSV-N212eGFP” value in series [4] was “increased GFP counts”. In series [5], the “growth of oncolytic HSV-1 expressing GFP” value is recorded as “increased growth”. Also, the “increase of virus output” value in series [6] is recorded as ≤ 1,000 fold. For the same compound, the “GFP counts, MG1-eGFP” value in [7] is “increased GFP counts”. In series [8], this compound showed an LD50 of 79 µM. The “dose at which toxicity starts” value in series [9] (ip) was at least 10 mg/kg. Further, the “enhancement of viral titers after pre-incubation of compound in media” value in [10] is “did not lead to robust enhancement of viral titers”. For the same compound, the “VSVΔ51-GFP titers / replication in tumor specimens” value in series [11] is given as “enhanced”.

As for `O=C1OC(c2ccccc2)C(Br)=C1Br` (centres unmarked) [Compound 2], the “Plasma stab. % remaning at 3 hrs” value in [1] was determined as 0%. The compound also showed a half-life in series [3] of under 5 min. The LD50 in series [8] amounted to 87 µM.

In the case of `O=C1OC(c2ccccc2)C(NCc2ccccc2)=C1Cl` (centres unmarked) [Compound 3], in [1], the “Plasma stab. % remaning at 3 hrs” value is on record as 65.6 ± 6.5%. This compound showed an LD50 in series [8] of 140 µM.

Regarding `CC(C)CNC1=C(Cl)C(=O)OC1c1ccccc1` (centres unmarked) [Compound 4], the “Plasma stab. % remaning at 3 hrs” value in [1] came to 0%. In [8], this compound gave an LD50 of 90 µM.

For `O=C1OCC(Cl)=C1Cl` [Compound 5, 3,4-Dichloro-5H-furan-2-one], in series [1], the “Plasma stab. % remaning at 3 hrs” value was determined as 0%. This compound came in with a half-life in series [3] of under 5 min. In series [8], this compound registered an LD50 of 41 µM.

On to `COC1OC(=O)C(Cl)=C1Cl` (centres unmarked) [Compound 6], for which, in series [1], the “Plasma stab. % remaning at 3 hrs” value was determined as 0%. The same compound showed a half-life in series [3] of under 5 min. In addition, in series [8], the LD50 turned out to be 73 µM.

`C#CCOC1OC(=O)C(Cl)=C1Cl` (centres unmarked) [Compound 7]: the “Plasma stab. % remaning at 3 hrs” value in series [1] came out at 0%. This compound had a half-life in [3] of under 5 min. This compound also yielded an LD50 in [8] of 52 µM.

Consider `O=c1[nH]n(-c2ccccc2)c(Cl)c1Cl` [Compound 8], for which the “Plasma stab. % remaning at 3 hrs” value in [1] is recorded as 88.3 ± 9.3%. This compound showed an LD50 in series [8] of over 180 µM.

As for `O=C1NC(O)C(Cl)=C1Cl` (centres unmarked) [Compound 9], in series [1], the “Plasma stab. % remaning at 3 hrs” value was found to be 0% and the “stability in the plasma assay” value is “remarkably improved stability”. For the same compound, the half-life in series [3] was 117 min. This compound also had an LD50 in series [8] of 148 µM.

Consider `O=C1C(Cl)=C(Cl)C(O)N1Cc1ccccc1` (stereo not drawn) [Compound 10, α,β-dichloro-γ-hydroxy-N-benzyl-crotonic lactam], for which, in series [1], the “Plasma stab. % remaning at 3 hrs” value was 19.8 ± 0.4% and the “stability in the plasma assay” value is reported as “remarkably improved stability”. In series [3], this compound had a half-life of 32 min. In series [4], the “GFP counts, HSV-N212eGFP” value is on record as “increased GFP counts”. In addition, in [5], the “growth of oncolytic HSV-1 expressing GFP” value is reported as “increased growth”. Further, the “GFP counts, MG1-eGFP” value in [7] is given as “increased GFP counts”. Further, in series [8], the LD50 worked out at 67 µM. In addition, the “dose up to which well tolerated” value in series [9] (ip) is given as at most 50 mg/kg.

Regarding `O=C1C(Cl)=C(Cl)CN1Cc1ccccc1` [Compound 11], in series [1], the “Plasma stab. % remaning at 3 hrs” value is recorded as 42.5 ± 9.6%. The compound also registered a half-life in series [3] of 64 min. The compound also gave an LD50 in series [8] of 332 µM.

For `COC1C(Cl)=C(Cl)C(=O)N1Cc1ccccc1` (centres unmarked) [Compound 12], the “Plasma stab. % remaning at 3 hrs” value in series [1] was 47.6 ± 1.4%. Further, the half-life in series [3] stood at 118 min. For the same compound, the LD50 in series [8] was 206 µM.

In the case of `CC(=O)OC1C(Cl)=C(Cl)C(=O)N1Cc1ccccc1` (centres unmarked) [Compound 13], the “Plasma stab. % remaning at 3 hrs” value in [1] turned out to be 0%. Moreover, in [3], the half-life came to 21 min. In [8], this compound yielded an LD50 of 61 µM.

In the case of `O=C1C(Cl)=C(Cl)C(=O)N1Cc1ccccc1` [Compound 14], the “Plasma stab. % remaning at 3 hrs” value in [1] was determined as 70.2 ± 8.4%. In series [3], this compound showed a half-life of under 5 min. The LD50 in [8] was determined as 104 µM.

For `O=C1C(Cl)=C(Cl)C(O)(c2ccccc2)N1Cc1ccccc1` (centres unmarked) [Compound 15], the “Plasma stab. % remaning at 3 hrs” value in [1] was 14.9 ± 7.1%. The same compound returned a half-life in [3] of 340 min. Besides, in series [8], the LD50 was 66 µM.

Take `O=C1C=CC(O)N1Cc1ccccc1` (centres unmarked) [Compound 16]: in [1], the “Plasma stab. % remaning at 3 hrs” value is reported as 98.2 ± 3.7%. In [8], this compound had an LD50 of over 360 µM.

As for `CC1=C(C)C(O)N(Cc2ccccc2)C1=O` (centres unmarked) [Compound 17], the “Plasma stab. % remaning at 3 hrs” value in [1] came to 82.0 ± 10.2%. Besides, the LD50 in series [8] is over 360 µM.

The compound `CCC1=C(Cl)C(=O)N(Cc2ccccc2)C1O` (centres unmarked) [Compound 18] returned an LD50 in [8] of over 360 µM.

For `O=C1C(Cl)=C(c2ccccc2)C(O)N1Cc1ccccc1` (centres unmarked) [Compound 19], the LD50 in [8] came to 250 µM.

On to `O=C1c2ccccc2C(O)N1Cc1ccccc1` (centres unmarked) [Compound 20], for which, in series [1], the “Plasma stab. % remaning at 3 hrs” value was determined as 102.9 ± 1.6%. For the same compound, in series [8], the LD50 is over 360 µM.

On to `CC(=O)NCCSC1=C(Cl)C(=O)N(Cc2ccccc2)C1O` (centres unmarked) [Compound 21], for which, in [1], the “Plasma stab. % remaning at 3 hrs” value was found to be 102.7 ± 10.8%. The same compound had an LD50 in series [8] of over 90 µM.

Regarding `O=C1C(Cl)=C(Cl)C(O)N1C1CC1` (centres unmarked) [Compound 25, 3,4-dichloro-1-cyclopropyl-5-hydroxy-1H-pyrrol-2(5H)-one], the “Plasma stab. % remaning at 3 hrs” value in [1] was determined as 54.8 ± 3.6%. The same compound registered a half-life in [3] of 53 min. The LD50 in series [8] was found to be 127 µM.

`O=C1C(Cl)=C(Cl)C(O)N1CCN1CCOCC1` (centres unmarked) [Compound 28, 3,4-dichloro-5-hydroxy-1-(2-morpholinoethyl)-1H-pyrrol-2(5H)-one]: in series [1], the “Plasma stab. % remaning at 3 hrs” value was 38.9 ± 5.2%. In [3], this compound registered a half-life of 96 min. Further, in [12], the “tumor-specific viral replication (luciferase activity, IVIS)” value is “significantly enhanced”. The “GFP counts, HSV-N212eGFP” value in series [4] is given as “increased GFP counts”. Besides, in series [13], the “impact on VSVΔ51 in normal tissue specimens” value is on record as “little to no impact”. The “GFP counts, MG1-eGFP” value in [7] is listed as “increased GFP counts”. The compound also displayed an LD50 in [8] of 153 µM. Also, the “tolerated dose relative to parent compound 1” value in [9] is reported as over 10 ×. In addition, the “dose up to which well tolerated” value in series [9] (ip) was “up to 100 mg/kg”. The “enhancement of VSVΔ51 output in tumor specimens” value in [11] was about 100 fold.

For the compound `O=C1C(Cl)=C(Cl)C(O)N1CCc1ccccc1` (centres unmarked) [Compound 29, 3,4-dichloro-5-hydroxy-1-phenethyl-1H-pyrrol-2(5H)-one], in series [1], the “Plasma stab. % remaning at 3 hrs” value was 57.6 ± 6.6%. This compound also had a half-life in series [3] of 74 min. The “GFP counts, HSV-N212eGFP” value in [4] is recorded as “increased GFP counts”. Further, in series [7], the “GFP counts, MG1-eGFP” value was “increased GFP counts”. The same compound showed an LD50 in [8] of 74 µM.

With `O=C1C(Cl)=C(Cl)C(O)N1Cc1ccc(C(F)(F)F)cc1` (centres unmarked) [Compound 40, 3,4-dichloro-5-hydroxy-1-(4-(trifluoromethyl)benzyl)-1H-pyrrol-2(5H)-one], in series [1], the “Plasma stab. % remaning at 3 hrs” value worked out at 15.3 ± 2.5%. In addition, the half-life in [3] was 32 min. In series [13], the “impact on VSVΔ51 in normal tissue specimens” value was “increases infection and replication in brain tissue”. This compound had an LD50 in series [8] of 36 µM. Also, the “VSVΔ51-GFP titers / replication in tumor specimens” value in series [11] is recorded as “enhances replication in tumors”.
